Measurements from US20050107959A1, “Screening method for evaluation of bilayer-drug interaction in liposomal compositions” (priority 2003, published 2005).

Experiment: Differential scanning calorimetry (VP-DSC) of DSPC liposomes (MLVs) with drugs
Assay type: physicochemical
Design: ΔHcal / ΔHvH / ΔHv: unit not given here
Conditions: for Interaction of the drug with the lipid bilayer (thermogram deviation from DSPC control): FIGS. 1A-1D, pH 3.6, DSPC/drug mixture vs DSPC control; for ΔHcal: calorimetric phase transition enthalpy; for ΔHcal / Cpmax / ΔTm½ / ΔT½: drug-to-lipid 1:5; for CU: cooperativity unit = ΔHvH/ΔHcal; for Tm: drug-to-lipid mole ratio 1:5; for Cpmax: heat capacity at phase transition peak; for ΔTm½ / ΔT½: transition peak width at half-height; for ΔHvH / ΔHv: van't Hoff's enthalpy calculated from DSC measurements; for Coop: cooperativity calculated from DSC measurements
Source text: Differential scanning calorimetry (DSC) is a method known in the art used to measure the amount of energy (as heat) absorbed or released by a sample as it is heated, cooled, or held at a constant temperature. As used herein, the term “DSC measurements” further includes calculations using a measured feature of the sample. An exemplary method of measuring DSC utilizes a differential scanning calorimeter. Any calorimeter is suitable as long as the temperature range of the calorimeter is appropriate for the sample measurements. An exemplary calorimeter is the VP-DSC differential scanning calorimeter available from MicroCal (Northampton, Mass., USA). Typical applications using the differential scanning calorimeter include determination of melting point temperature and/or the heat of melting, measurement of the glass transition temperature, curing and crystallization studies, and identification of phase transformations.
In the embodiment using a differential scanning calorimeter for measuring the thermodynamic properties of a lipid suspension, the heat flow into a sample is usually contained in a sample cell and measured differentially, i.e. by comparing the heat flow of the sample to the heat flow into an reference cell containing an equal volume of water or the aqueous component of the sample. The heat flow may be considered as the amount of heat (q) supplied per unit of time (t), or q/t. Typically, both cells sit inside a metal jacket with a known (calibrated) heat resistance (K). The temperature of the calorimeter is raised linearly with time (scanned), where the heating rate (β=dT/dt) of the cells are kept constant and consistent with each other. […] The temperature may be controlled manually or automatically. […] Heat flows into the two cells by conduction from a heat source such as a radiator. The heat flow into the sample cell is larger due to the additional heat capacity (Cp) of the sample during the course of the phase transition. Heat capacity refers to the heat flow divided by the heating rate or Cp=q/ΔT, where q is heat, and ΔT is temperature increase. The difference in heat flow (dq/dt) induces a temperature difference (dT) between the sample and the reference cells. This temperature difference is measured using any appropriate sensor, such as a thermocouple, and a signal is generated representative of the difference.
In this figure, in a heating scan, an endothermic event results in a positive (upward) deviation from the baseline. […] The melting temperature is seen on the heat flow plot as a peak as heat is absorbed by the sample until the phase transition is completed. As will be appreciated by those of skill in the art, the main phase transition extends over a temperature range, although this peak is typically very sharp for most vesicle-forming lipids, such as DSPC, the Tm can be reported as the onset of the transition, as the midpoint of the transition, the peak temperature, or any suitable point as long as the parameters are defined. […] It will be appreciated that the exact percent of phase transition is not important as long as it is defined. Where a ratio is used, it is desirable to use the same ratio for each sample to aid in comparison between the samples. In the studies reported herein, the Tm is reported as the maximum peak of the transition range.
The latent heat of melting, or the calorimetric phase transition enthalpy, (ΔHcal) can be determined by first determining the area (A) under the peak according to the following formula: A=(heat in calories)(temperature in Kelvin)/(time in seconds)(mass in moles).

[1] = pH 3.6, scan 20° C./hour, maximum peak of main phase transition

| Compound | Interaction of the drug with the lipid bilayer (thermogram deviation from DSPC control) | ΔHcal (pH 3.6) | CU (pH 3.6) | Tm (pH 3.6) | Tm [1] | Cpmax (pH 3.6) | ΔTm½ (pH 3.6) | ΔHvH (pH 3.6) | ΔHcal (pH 7.0) | Coop (pH 7.0) | Tm (pH 7.0) | Tm (pH 7.0, scan 20° C./hour) | Cpmax (pH 7.0) | ΔT½ (pH 7.0) | ΔHv (pH 7.0) |
| --- | --- | --- | --- | --- | --- | --- | --- | --- | --- | --- | --- | --- | --- | --- | --- |
| COc1cccc2c1C(=O)c1c(O)c3c(c(O)c1C2=O)C[C@@](O)(C(=O)CO)C[C@@H]3O[C@H]1C[C@H](N)[C@H](O)[C@H](C)O1 [doxorubicin] | weak interaction | 9.28 | 73.3 | 54.6 °C | 54.5 °C | 7.4 | 0.94 °C | 680.5 | 9.66 | 149 | 54.5 °C | 54.45 C. | 16.3 | 0.4 °C | 1437 |
| O=C(O)c1cn(C2CC2)c2cc(N3CCNCC3)c(F)cc2c1=O [ciprofloxacin] | – | 9.98 | 38.6 | 55 °C | 54.9 °C | 4.5 | – | 385.6 | – | – | – | – | – | – | – |
| CC[C@@]1(O)C(=O)OCc2c1cc1n(c2=O)Cc2c-1nc1ccccc1c2CCNC(C)C [CKD602] | some interaction | 11.81 | 45.9 | 54.7 °C | 54.6 °C | 7.5 | 1.27 °C | 542.3 | 11.2 | 117 | 54.43 °C | 54.43 C. | 17.2 | 0.42 °C | 1308 |

Second part, the compound after the results:

| Interaction of the drug with the lipid bilayer (thermogram deviation from DSPC control) | ΔHcal (pH 3.6) | CU (pH 3.6) | Tm (pH 3.6) | Tm [1] | Cpmax (pH 3.6) | ΔTm½ (pH 3.6) | ΔHvH (pH 3.6) | ΔHcal (pH 7.0) | Coop (pH 7.0) | Tm (pH 7.0) | Tm (pH 7.0, scan 20° C./hour) | Cpmax (pH 7.0) | ΔT½ (pH 7.0) | ΔHv (pH 7.0) | Compound |
| --- | --- | --- | --- | --- | --- | --- | --- | --- | --- | --- | --- | --- | --- | --- | --- |
| some interaction | 12.77 | 37.2 | 54.7 °C | 54.6 °C | 7.1 | 1.42 °C | 474.9 | 11.65 | 43 | 53.93 °C | 53.93 C. | 6.81 | 1.38 °C | 496 | CC[C@]1(O)C[C@H]2CN(CCc3c([nH]c4ccccc34)[C@@](C(=O)OC)(c3cc4c(cc3OC)N(C=O)[C@H]3[C@@](O)(C(=O)OC)[C@H](OC(C)=O)[C@]5(CC)C=CCN6CC[C@]43[C@@H]65)C2)C1 [vincristine] |
| significant interaction | 10.6 | 26.6 | 54.5 °C | 54.5 °C | 3.5 | 2.27 °C | 281.7 | 9.94 | 75 | 54.07 °C | 54.07 C. | 8.67 | 0.77 °C | 741 | CC(=O)O[C@H]1C(=O)[C@@]2(C)[C@H]([C@H](OC(=O)c3ccccc3)[C@]3(O)C[C@H](OC(=O)[C@H](O)[C@@H](NC(=O)c4ccccc4)c4ccccc4)C(C)=C1C3(C)C)[C@]1(OC(C)=O)CO[C@@H]1C[C@@H]2O [paclitaxel] |
